The record followed here is US20240270741A1 (Cogent Biosciences, Inc., priority 2023, published 2024).

The structures appear in SMILES notation.

The target in the first experiment is FGFR2 (Homo sapiens, UniProt P21802). In words: FGFR wild type enzyme assay (HTRF KinEASE-TK), FGFR2. Particulars: Enz FGFR2 (nM).
FGFR2, sequence (P21802 399-821 limits assumed): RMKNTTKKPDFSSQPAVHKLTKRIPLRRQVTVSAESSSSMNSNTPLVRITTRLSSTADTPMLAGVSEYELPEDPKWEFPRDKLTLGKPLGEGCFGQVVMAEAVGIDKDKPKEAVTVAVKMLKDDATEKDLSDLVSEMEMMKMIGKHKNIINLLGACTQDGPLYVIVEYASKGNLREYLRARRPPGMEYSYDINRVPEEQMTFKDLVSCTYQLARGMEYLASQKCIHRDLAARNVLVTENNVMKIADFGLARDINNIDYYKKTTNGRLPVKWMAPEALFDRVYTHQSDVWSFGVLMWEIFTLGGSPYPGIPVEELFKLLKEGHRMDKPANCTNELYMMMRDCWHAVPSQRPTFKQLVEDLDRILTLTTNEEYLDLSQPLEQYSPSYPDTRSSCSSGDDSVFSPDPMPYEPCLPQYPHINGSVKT
Usually IC50 stands for the concentration that gives 50% inhibition. In turn, `N#Cc1cnn2cc(-c3cnn(C4CCN(CCO)CC4)c3)cc(Sc3ccccn3)c12` [Example 90, 6-[1-[1-(2-hydroxyethyl)-4-piperidyl]pyrazol-4-yl]-4-(2-pyridylsulfanyl)pyrazolo[1,5-a]pyridine-3-carbonitrile] came in with a half-inhibitory concentration (IC50) of 2 nM. On to `Cc1c(-c2cc(Sc3ncccc3F)c3c(C#N)cnn3c2)cnn1C1CCN(CCO)CC1` [Example 108, 4-[(3-fluoro-2-pyridyl)sulfanyl]-6-[5-methyl-1-(1-methyl-4-piperidyl)pyrazol-4-yl]pyrazolo[1,5-a]pyridine3-carbonitrilee], for which the IC50 amounted to 2 nM. In the case of `N#Cc1cnn2cc(-c3cnn([C@H]4CCCNC4)c3)cc(Sc3ccccc3CO)c12` [Example 74, 4-[2-(hydroxymethyl)phenyl]sulfa-nyl-6-[1-[(3S)-3-piperidyl]pyrazol-4-yl]pyrazolo[1,5-a]pyridine-3-carbonitrile], the midpoint of inhibition, the IC50, lay at 6 nM. The same measure, in the same setting: under `CN1CCC[C@@H]1C(=O)N1CCC(n2cc(-c3cc(Sc4ncccc4F)c4c(C#N)cnn4c3)cn2)CC1` [Example 127, 4-[(3-fluoro-2-pyridyl)sulfanyl]-6-[1-[1-[(2R)-1-methylpyrrolidine-2-carbonyl]-4-piperidyl]pyrazol-4-yl]pyrazolo[1,5-a]pyridine-3-carbonitrile] stands 1 nM.

The experiment is the same for the next values; noted with them: Enz FGFR2 (nM), FGFR2 wild type enzyme.
Molecule `Cc1c(-c2cc(Sc3ncccc3F)c3c(C#N)cnn3c2)cnn1[C@H]1CC[C@@H](NC(C)C)CC1` [Example 243, 4-((3-fluoropyridin-2-yl)thio)-6-(1-((1s,4s)-4-(isopropylamino)cyclohex-yl)-5-methyl-1H-pyrazol-4-yl)pyrazolo[1,5-a]pyridine-3-carbonitrile] gave an IC50 of 1 nM. In the case of `Cc1c(-c2cc(Sc3ccccc3C#N)c3c(C#N)cnn3c2)cnn1C1CC2CCC(C1)N2C` (centres unmarked) [Example 199, 4-((2-cyanophenyl)thio)-6-(5-methyl-1-(8-methyl-8-azabicyclo[3.2.1]octan-3-yl)-1H-pyrazol-4 yl)pyrazolo[1,5-a]pyridine-3-carbonitrile], inhibition was half-maximal at 1 nM (IC50). In turn, `Cc1c(-c2cc(Sc3ccccc3C#N)c3c(C#N)cnn3c2)cnn1C1CCC(N(C)C)CC1` (centres unmarked) [Example 159] returned an IC50 of 0.5 nM. Still for that read-out and setting: the same measure for `N#Cc1ccccc1Sc1cc(-c2cnn(CC(F)(F)F)c2)cn2ncc(C#N)c12` [Example 258]: 2 nM. With `Cc1c(-c2cc(Sc3ncccc3F)c3c(C#N)cnn3c2)cnn1C1CCN(C(=O)[C@@H]2C[C@@H](F)CN2C)CC1` [Example 196, 6-(1-(1-((2S,4R)-4-fluoro-1-methylpyrrolidine-2-carbonyl)piperidin-4-yl)-5-methyl-1H-pyrazol-4-yl)-4-((3-fluoropyridin-2-yl)thio)pyrazolo[1,5-a]pyridine-3-carbonitrile], the IC50 turned out to be 1 nM. Molecule `Cc1c(-c2cc(Sc3ncccc3F)c3c(C#N)cnn3c2)cnn1C[C@H]1CC[C@H](O)CC1` [Example 239, 4-((3-fluoropyridin-2-yl)thio)-6-(1-(((1r,4r)-4-hydroxycyclohexyl)methyl)-5-methyl-1H-pyrazol-4-yl)pyrazolo[1,5-a]pyridine-3-carbonitrile] yielded an IC50 of 3 nM.

Still in this experiment, the particulars now being: Enz FGFR2 (nM), FGFR2 wild type enzyme assay.
Take `Cc1c(-c2cc(Sc3ccccc3C#N)c3c(C#N)cnn3c2)cnn1C1CCN(C#N)CC1` [Example 556, 4-((2-cyanophenyl)thio)-6-(1-(1-cyanopiperidin-4-yl)-5-methyl-1H-pyrazol-4-yl)pyrazolo[1,5-a]pyridine-3-carbonitrile]: the IC50 was found to be 1 nM. On the same count and under the same terms, under `Cn1ncc(-c2cc(Sc3ncccc3F)c3c(C#N)cnn3c2)c1N` [Example 545, 6-(5-amino-1-methyl-pyrazol-4-yl)-4-[(3-fluoro-2-pyridyl)sulfanyl]pyrazolo[1,5-a]pyridine-3-carbonitrile] stands 3 nM; under `COCC(=O)N1CCC(n2cc(-c3cc(Sc4ccccc4C#N)c4c(C#N)cnn4c3)cn2)CC1` [Example 538, 4-((2-cyanophenyl)thio)-6-(1-(1-(2-methoxyacetyl)piperidin-4-yl)-1H-pyrazol-4-yl)pyrazolo[1,5-a]pyridine-3-carbonitrile], 0.3 nM.

`CN1CC[C@@H](n2cc(-c3cc(Sc4ccccc4C#N)c4c(C#N)cnn4c3)cn2)C1` [Example 604, (R)-4-((2-cyanophenyl)thio)-6-(1-(1-methylpyrrolidin-3-yl)-1H-pyrazol-4-yl)pyrazolo[1,5-a]pyridine-3-carbonitrile]: the IC50 was 0.5 nM. Still for that read-out and setting: under `COC(=O)N1CCC(n2cc(-c3cc(Sc4ccccc4C#N)c4c(C#N)cnn4c3)cn2)CC1` [Example 481, methyl 4-(4-(3-cyano-4-((2-cyanophenyl)thio)pyrazolo [1,5-a]pyridin-6-yl)-1H-pyrazol-1-yl)piperidine-1-carboxylate] stands 4 nM; under `Cc1nn([C@H]2CCCN(C(=O)CO)C2)cc1-c1cc(Sc2ncccc2F)c2c(C#N)cnn2c1` [Example 420, (S)-4-((3-fluoropyridin-2-yl)thio)-6-(1-(1-(2-hydroxyacetyl)piperidin-3-yl)-3-methyl-1H-pyrazol-4-yl)pyrazolo[1,5-a]pyridine-3-carbonitrile], 4 nM. On to `CC1(C)C[C@@H](n2cc(-c3cc(Sc4ncccc4F)c4c(C#N)cnn4c3)cn2)CN1` [Example 473, (R)-6-(1-(5,5-dimethylpyrrolidin-3-yl)-1H-pyrazol-4-yl)-4-((3-fluoropyridin-2-yl)thio)pyrazolo[1,5-a]pyridine-3-carbonitrile], for which 1 nM corresponded to half-maximal inhibition (IC50). On to `CC(=O)N1CCC(n2cc(-c3cc(Sc4ccccc4C#N)c4c(C#N)cnn4c3)c(C)n2)CC1` [Example 400, 6-(1-(1-acetylpiperidin-4-yl)-3-methyl-1H-pyrazol-4-yl)-4-((2-cyanophenyl)thio)pyrazolo [1,5-a]pyridine-3-carbonitrile], for which the IC50 was found to be 3 nM.

The molecule `Cc1nn([C@H]2CC[C@H](O)CC2)cc1-c1cc(Sc2ccccc2C#N)c2c(C#N)cnn2c1` [Example 441, 4-((2-cyanophenyl)thio)-6-(1-((1r,4r)-4-hydroxycyclohexyl)-3-methyl-1H-pyrazol-4-yl)pyrazolo[1,5-a]pyridine-3-carbonitrile] showed an IC50 of 3 nM. Still for that read-out and setting: the same measure for `C[C@@H](O)C(=O)N1CCC(n2cc(-c3cc(Sc4ccccc4C#N)c4c(C#N)cnn4c3)cn2)CC1` [Example 447]: 0.4 nM. In the case of `CC(=O)NCCn1cc(-c2cc(Sc3ccccc3C#N)c3c(C#N)cnn3c2)cn1` [Example 663, N-(2-(4-(3-cyano-4-((2-cyanophenyl)thio)pyrazolo [1,5-a]pyridin-6-yl)-1H-pyrazol-1-yl)ethyl)acetamide], the IC50 stood at 2 nM. On to `CN(C)C(=O)Cn1cc(-c2cc(Sc3ccccc3C#N)c3c(C#N)cnn3c2)cn1` [Example 541, 2-(4-(3-cyano-4-((2-cyanophenyl)thio)pyrazolo [1,5-a]pyridin-6-yl)-1H-pyrazol-1-yl)-N,N-dimethylacetamide], for which the IC50 was 1 nM. For the molecule `N#Cc1ccccc1Sc1cc(-c2cnn([C@H]3CCN(CCO)C3)c2)cn2ncc(C#N)c12` [Example 485, (S)-4-((2-cyanophenyl)thio)-6-(1-(1-(2-hydroxyethyl)pyrrolidin-3-yl)-1H-pyrazol-4-yl)pyrazolo[1,5-a]pyridine-3-carbonitrile], the IC50 turned out to be 0.4 nM.
